In ChEMBL document CHEMBL1201862, “PubChem BioAssay data set” (2004):
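Cells were grown in 96-well plates and exposed to each compound for 48 hours at five concentrations; endpoints were interpolated linearly between bracketing concentrations, or set to the highest concentration if not reached. Abbreviation: GI50, concentration required for 50% inhibition of growth.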 Activity calls are given as the source filed them. No stated cut-off is given here; in the data, active = GI50 up to about 1.1 µM and inactive = higher.

How the values were obtained:
Test in all cases: NCI tumour cell line growth inhibition, 48 h
A498 = system: A498
DU-145 = system: DU-145
HCT-15 = system: HCT-15
HOP-92 = system: HOP-92
HT-29 = system: HT-29
M14 = system: M14
MCF7 = system: MCF7
MDA-MB-435 = system: MDA-MB-435
NCI-H23 = system: NCI-H23
NCI-H460 = system: NCI-H460
NCI/ADR-RES = system: NCI/ADR-RES
OVCAR-3 = system: OVCAR-3
OVCAR-4 = system: OVCAR-4
PC-3 = system: PC-3
RXF 393 = system: RXF 393
SK-MEL-28 = system: SK-MEL-28
SNB-19 = system: SNB-19
CAKI-1 = system: CAKI-1
NCI-H522 = system: NCI-H522
SF-295 = system: SF-295

Compound	GI50 (A498)	GI50 (DU-145)	GI50 (HCT-15)	GI50 (HOP-92)	GI50 (HT-29)	GI50 (M14)	GI50 (MCF7)	GI50 (MDA-MB-435)	GI50 (NCI-H23)	GI50 (NCI-H460)	GI50 (NCI/ADR-RES)	GI50 (OVCAR-3)	GI50 (OVCAR-4)	GI50 (PC-3)	GI50 (RXF 393)	GI50 (SK-MEL-28)	GI50 (SNB-19)	GI50 (CAKI-1)	GI50 (NCI-H522)	GI50 (SF-295)
COc1ccc(/C=C2\N=C(SC)N(C)C2=O)cc1	37.8 µM (inactive)	> 100 µM (inactive)	64.3 µM	> 100 µM (inactive)	46.1 µM (inactive)	82.6 µM (inactive)	49.4 µM (inactive)	51.4 µM (inactive)	> 100 µM (inactive)	99.1 µM (inactive)	86.9 µM (inactive)	46.1 µM (inactive)	39.6 µM (inactive)	40.9 µM (inactive)	> 100 µM (inactive)	> 100 µM (inactive)	> 100 µM (inactive)	–	–	–
CCN(CC)CCCn1c(=O)c2ccccc2n2c3c(=O)n(C)c(=O)n(C)c3nc12	–	1.57 µM (inactive)	5.83 µM	3.9 µM (inactive)	6.56 µM (inactive)	12.3 µM (inactive)	4.76 µM (inactive)	14.2 µM (inactive)	4.67 µM (inactive)	0.355 µM (active)	13.2 µM (inactive)	14.4 µM (inactive)	6.95 µM (inactive)	8.39 µM (inactive)	16 µM (inactive)	15.7 µM (inactive)	4.88 µM (inactive)	1.43 µM (inactive)	5.74 µM (inactive)	3.43 µM (inactive)
CCC1(CC)C(=O)NN(C(=O)c2ccccc2)C1=O	–	> 100 µM (inactive)	> 100 µM	–	> 100 µM (inactive)	> 100 µM (inactive)	> 100 µM (inactive)	> 100 µM (inactive)	> 100 µM (inactive)	> 100 µM (inactive)	> 100 µM (inactive)	> 100 µM (inactive)	> 100 µM (inactive)	> 100 µM (inactive)	> 100 µM (inactive)	> 100 µM (inactive)	> 100 µM (inactive)	> 100 µM (inactive)	> 100 µM (inactive)	> 100 µM (inactive)
C=CCN(CC=C)Cn1c(=S)sc2ccccc21	–	> 100 µM (inactive)	45 µM	36.4 µM (inactive)	–	> 100 µM (inactive)	> 100 µM (inactive)	> 100 µM (inactive)	> 100 µM (inactive)	82.8 µM (inactive)	> 100 µM (inactive)	> 100 µM (inactive)	86.3 µM (inactive)	> 100 µM (inactive)	> 100 µM (inactive)	37.5 µM (inactive)	> 100 µM (inactive)	15.3 µM (inactive)	18.7 µM (inactive)	> 100 µM (inactive)
CCOC(=O)Nc1nn[nH]c1Cl	> 100 µM (inactive)	> 100 µM (inactive)	> 100 µM	–	> 100 µM (inactive)	> 100 µM (inactive)	> 100 µM (inactive)	> 100 µM (inactive)	> 100 µM (inactive)	> 100 µM (inactive)	> 100 µM (inactive)	> 100 µM (inactive)	> 100 µM (inactive)	> 100 µM (inactive)	> 100 µM (inactive)	> 100 µM (inactive)	–	> 100 µM (inactive)	> 100 µM (inactive)	–
CCOC(=O)/C=C(/C(=O)OCC)n1ccc(=O)n(Cc2cn(CCCCOC(C)=O)nn2)c1=O	–	> 100 µM (inactive)	59.4 µM	6.65 µM (inactive)	> 100 µM (inactive)	–	60.3 µM (inactive)	> 100 µM (inactive)	> 100 µM (inactive)	> 100 µM (inactive)	> 100 µM (inactive)	> 100 µM (inactive)	> 100 µM (inactive)	> 100 µM (inactive)	> 100 µM (inactive)	> 100 µM (inactive)	> 100 µM (inactive)	23.3 µM (inactive)	13.6 µM (inactive)	> 100 µM (inactive)
CC(CO)(CO)N1C(=O)C2C3c4ccccc4C(c4ccccc43)C2C1=O (stereo not given)	64 µM (inactive)	50.4 µM (inactive)	> 100 µM	–	> 100 µM (inactive)	> 100 µM (inactive)	> 100 µM (inactive)	> 100 µM (inactive)	> 100 µM (inactive)	> 100 µM (inactive)	> 100 µM (inactive)	> 100 µM (inactive)	–	> 100 µM (inactive)	–	> 100 µM (inactive)	> 100 µM (inactive)	> 100 µM (inactive)	> 100 µM (inactive)	> 100 µM (inactive)
C=C(C1=CC(=O)C(C)(C)O1)[C@@H]1CC=C([C@@H]2CC[C@H]3[C@@]2(C)CC[C@H]2C(C)(C)C(=O)[C@H](O)C[C@]32C)[C@H](O)O1	5.16 µM (inactive)	1.03 µM (active)	2.04 µM	1.98 µM (inactive)	1.87 µM (inactive)	1.58 µM (inactive)	0.546 µM (active)	2.49 µM (inactive)	3.85 µM (inactive)	13 µM (inactive)	3.98 µM (inactive)	0.847 µM (active)	3.11 µM (inactive)	1.31 µM (inactive)	1.81 µM (inactive)	4.42 µM (inactive)	10.2 µM (inactive)	3.89 µM (inactive)	–	8.04 µM (inactive)
CCN(CC)CCCC(C)NC(=O)c1cc(-c2nccn2C)nc2ccc(C)cc12 (stereo not given)	> 100 µM (inactive)	> 100 µM (inactive)	> 100 µM	> 100 µM (inactive)	> 100 µM (inactive)	> 100 µM (inactive)	64.7 µM (inactive)	> 100 µM (inactive)	> 100 µM (inactive)	33 µM (inactive)	> 100 µM (inactive)	–	67.5 µM (inactive)	> 100 µM (inactive)	> 100 µM (inactive)	> 100 µM (inactive)	> 100 µM (inactive)	> 100 µM (inactive)	–	–
OCCN=C1c2ccccc2C2C(c3ccccc31)C1c3ccccc3C(=NCCO)c3ccccc3C21 (stereo not given)	–	21.7 µM (inactive)	17.4 µM	–	15.4 µM (inactive)	20.1 µM (inactive)	20.3 µM (inactive)	18 µM (inactive)	44.7 µM (inactive)	26.9 µM (inactive)	22.2 µM (inactive)	18.2 µM (inactive)	18.8 µM (inactive)	17.2 µM (inactive)	22.8 µM (inactive)	17.5 µM (inactive)	10.7 µM (inactive)	16.3 µM (inactive)	–	12.9 µM (inactive)
COc1cc2c(/C=C3/C(=O)Nc4ccc(O)cc43)c(Cl)n(Cc3ccccc3)c2cc1C	–	1.16 µM (inactive)	1.27 µM	12.8 µM (inactive)	0.75 µM (active)	0.6 µM (active)	1.18 µM (inactive)	0.078 µM (active)	0.618 µM (active)	0.553 µM (active)	0.574 µM (active)	0.234 µM (active)	4.2 µM (inactive)	0.897 µM (active)	0.352 µM (active)	3.56 µM (inactive)	0.596 µM (active)	0.408 µM (active)	1.22 µM (inactive)	0.323 µM (active)
Cc1cc2c(c(C(=O)NCC(=O)O)c1)Oc1c(cc(C)cc1C(=O)NCC(=O)O)S2	–	> 100 µM (inactive)	> 100 µM	> 100 µM (inactive)	> 100 µM (inactive)	> 100 µM (inactive)	> 100 µM (inactive)	> 100 µM (inactive)	> 100 µM (inactive)	–	> 100 µM (inactive)	> 100 µM (inactive)	> 100 µM (inactive)	> 100 µM (inactive)	> 100 µM (inactive)	> 100 µM (inactive)	> 100 µM (inactive)	> 100 µM (inactive)	> 100 µM (inactive)	> 100 µM (inactive)
C=C(C)CCN(C(=O)OC(C)(C)C)c1cc(C(C)C)co1	> 100 µM (inactive)	45 µM (inactive)	> 100 µM	11.4 µM (inactive)	45.3 µM (inactive)	> 100 µM (inactive)	40.4 µM (inactive)	96.2 µM (inactive)	54 µM (inactive)	–	24.2 µM (inactive)	40.5 µM (inactive)	59.2 µM (inactive)	22.4 µM (inactive)	–	> 100 µM (inactive)	> 100 µM (inactive)	> 100 µM (inactive)	–	51.4 µM (inactive)
O=c1[nH]nc(Cc2ccccc2)n1/N=C/c1cccs1	16 µM (inactive)	> 100 µM (inactive)	> 100 µM	–	> 100 µM (inactive)	> 100 µM (inactive)	> 100 µM (inactive)	> 100 µM (inactive)	> 100 µM (inactive)	> 100 µM (inactive)	> 100 µM (inactive)	> 100 µM (inactive)	> 100 µM (inactive)	> 100 µM (inactive)	35.2 µM (inactive)	> 100 µM (inactive)	> 100 µM (inactive)	> 100 µM (inactive)	–	> 100 µM (inactive)
Cc1cc(N(CCC#N)CCC#N)ccc1C(/N=N/c1ccc(C(=O)O)cc1)=N\NC(=O)c1ccccc1	22.3 µM (inactive)	71.4 µM (inactive)	20.9 µM	–	17.3 µM (inactive)	36.6 µM (inactive)	22.8 µM (inactive)	3.94 µM (inactive)	17.7 µM (inactive)	22.9 µM (inactive)	66.8 µM (inactive)	> 10 µM (inactive)	> 100 µM (inactive)	26.1 µM (inactive)	17.7 µM (inactive)	–	50.8 µM (inactive)	> 100 µM (inactive)	13.2 µM (inactive)	23.9 µM (inactive)
O=C1Cc2c([nH]c3ccc(C(=O)O)cc23)-c2ccccc2N1	> 100 µM (inactive)	> 100 µM (inactive)	> 100 µM	> 100 µM (inactive)	84.9 µM (inactive)	> 100 µM (inactive)	> 100 µM (inactive)	> 100 µM (inactive)	> 100 µM (inactive)	> 100 µM (inactive)	> 100 µM (inactive)	> 100 µM (inactive)	> 100 µM (inactive)	> 100 µM (inactive)	–	> 100 µM (inactive)	> 100 µM (inactive)	> 100 µM (inactive)	–	> 100 µM (inactive)
